Source: US20050197350A1, “Novel quinoline, tetrahydroquinazoline, and pyrimidine derivatives and methods of treatment related to the use thereof” (TAISHO PHARMACEUTICAL CO., LTD., priority 2003, published 2005)

What follows are molecules tested on MCH receptors (assay: MCH receptor activity class (method not given)). Details: MCH receptor activity class 1-3 (percent of control at 10^-7 M or IC50).

Structure (SMILES) | class
CN(C)c1cc(N[C@H]2CC[C@@H](CNC(=O)Nc3ccccc3I)CC2)nc2ccccc12 [compound 2378] | 3 (Class 3 The value of percent of control at 10^−7 M was more than 60% or the value of IC50 was more than 200 nM.)
Cc1cccc(C(C)C)c1NC(=O)NC[C@H]1CC[C@@H](Nc2cc(N(C)C)c3ccccc3n2)CC1 [compound 2379] | 2 (Class 2: The value of percent of control at 10^−7 M was from 40% to 60% or the value of IC′50 was from 50 nM to 200 nM.)
CC(C)c1ccccc1NC(=O)NC[C@H]1CC[C@@H](Nc2cc(N(C)C)c3ccccc3n2)CC1 [compound 2380] | 3 (Class 3 The value of percent of control at 10^−7 M was more than 60% or the value of IC50 was more than 200 nM.)
Cc1c(NC(=O)NC[C@H]2CC[C@@H](Nc3cc(N(C)C)c4ccccc4n3)CC2)cccc1[N+](=O)[O-] [compound 2381, N-[(cis-4-{[4-(dimethylamino)quinolin-2-yl]amino}cyclohexyl)methyl]-N′-(2-methyl-3-nitrophenyl)urea] | 2 (Class 2: The value of percent of control at 10^−7 M was from 40% to 60% or the value of IC′50 was from 50 nM to 200 nM.)
CCCc1ccccc1NC(=O)NC[C@H]1CC[C@@H](Nc2cc(N(C)C)c3ccccc3n2)CC1 [compound 2382] | 3 (Class 3 The value of percent of control at 10^−7 M was more than 60% or the value of IC50 was more than 200 nM.)
Cc1cccc(C(C)(C)C)c1NC(=O)NC[C@H]1CC[C@@H](Nc2cc(N(C)C)c3ccccc3n2)CC1 [compound 2383, N-(2-tert-butyl-6-methylphenyl)-N′-[(cis-4-{[4-(dimethylamino)quinolin-2-yl]amino}cyclohexyl)methyl]urea] | 1 (Class 1: The value of percent of control at 10^−7 M was less than 40% or the value of IC50 was less than 50 nM.)
CN(C)c1cc(N[C@H]2CC[C@@H](CNC(=O)Nc3ccccc3C(C)(C)C)CC2)nc2ccccc12 [compound 2384] | 1 (Class 1: The value of percent of control at 10^−7 M was less than 40% or the value of IC50 was less than 50 nM.)
Cc1c(Cl)cccc1NC(=O)NC[C@H]1CC[C@@H](Nc2cc(N(C)C)c3ccccc3n2)CC1 [compound 2385] | 3 (Class 3 The value of percent of control at 10^−7 M was more than 60% or the value of IC50 was more than 200 nM.)
CN(C)c1cc(N[C@H]2CC[C@@H](CNC(=O)Nc3c(F)cc(Br)cc3F)CC2)nc2ccccc12 [compound 2386] | 3 (Class 3 The value of percent of control at 10^−7 M was more than 60% or the value of IC50 was more than 200 nM.)
CN(C)c1cc(N[C@H]2CC[C@@H](CNC(=O)Nc3ccc(Cl)cc3C(F)(F)F)CC2)nc2ccccc12 [compound 2387] | 3 (Class 3 The value of percent of control at 10^−7 M was more than 60% or the value of IC50 was more than 200 nM.)
CN(C)c1cc(N[C@H]2CC[C@@H](CNC(=O)Nc3ccc(C#N)cc3)CC2)nc2ccccc12 [compound 2388] | 3 (Class 3 The value of percent of control at 10^−7 M was more than 60% or the value of IC50 was more than 200 nM.)
CN(C)c1cc(N[C@H]2CC[C@@H](CNC(=O)NC(c3ccccc3)c3ccccc3)CC2)nc2ccccc12 [compound 2389, N-[(cis-4-{[4-(dimethylamino)quinolin-2-yl]amino}cyclohexyl)methyl]-N′-(diphenylmethyl)urea] | 2 (Class 2: The value of percent of control at 10^−7 M was from 40% to 60% or the value of IC′50 was from 50 nM to 200 nM.)
Cc1cc(Br)cc(C)c1NC(=O)NC[C@H]1CC[C@@H](Nc2cc(N(C)C)c3ccccc3n2)CC1 [compound 2390, N-(4-bromo-2,6-dimethylphenyl)-N′-[(cis-4-{[4-(dimethylamino)quinolin-2-yl]amino}cyclohexyl)methyl]urea] | 1 (Class 1: The value of percent of control at 10^−7 M was less than 40% or the value of IC50 was less than 50 nM.)
Cc1noc(-c2ccccc2)c1NC(=O)NC[C@H]1CC[C@@H](Nc2cc(N(C)C)c3ccccc3n2)CC1 [compound 2391] | 3 (Class 3 The value of percent of control at 10^−7 M was more than 60% or the value of IC50 was more than 200 nM.)
Cc1cc(NC(=O)NC[C@H]2CC[C@@H](Nc3cc(N(C)C)c4ccccc4n3)CC2)c(C(F)(F)F)o1 [compound 2392] | 3 (Class 3 The value of percent of control at 10^−7 M was more than 60% or the value of IC50 was more than 200 nM.)
CN(C)c1cc(N[C@H]2CC[C@@H](CNC(=O)Nc3cc(Cl)cc(Cl)c3)CC2)nc2ccccc12 [compound 2393] | 3 (Class 3 The value of percent of control at 10^−7 M was more than 60% or the value of IC50 was more than 200 nM.)
CN(C)c1cc(N[C@H]2CC[C@@H](CNC(=O)Nc3cccc(Cl)c3Cl)CC2)nc2ccccc12 [compound 2394] | 2 (Class 2: The value of percent of control at 10^−7 M was from 40% to 60% or the value of IC′50 was from 50 nM to 200 nM.)
Cc1ccc(NC(=O)NC[C@H]2CC[C@@H](Nc3cc(N(C)C)c4ccccc4n3)CC2)cc1 [compound 2395] | 3 (Class 3 The value of percent of control at 10^−7 M was more than 60% or the value of IC50 was more than 200 nM.)

Structure (SMILES) | class
CC(C)c1cccc(C(C)C)c1NC(=O)NC[C@H]1CC[C@@H](Nc2cc(N(C)C)c3ccccc3n2)CC1 [compound 2396] | 1 (Class 1: The value of percent of control at 10^−7 M was less than 40% or the value of IC50 was less than 50 nM.)
Cc1ccc([N+](=O)[O-])c(NC(=O)NC[C@H]2CC[C@@H](Nc3cc(N(C)C)c4ccccc4n3)CC2)c1C [compound 2397] | 3 (Class 3 The value of percent of control at 10^−7 M was more than 60% or the value of IC50 was more than 200 nM.)
CN(C)c1cc(N[C@H]2CC[C@@H](CNC(=O)Nc3c(Br)cc(F)cc3Br)CC2)nc2ccccc12 [compound 2398] | 3 (Class 3 The value of percent of control at 10^−7 M was more than 60% or the value of IC50 was more than 200 nM.)
CN(C)c1cc(N[C@H]2CC[C@@H](CNC(=O)Nc3c(Cl)cccc3Cl)CC2)nc2ccccc12 [compound 2399] | 3 (Class 3 The value of percent of control at 10^−7 M was more than 60% or the value of IC50 was more than 200 nM.)
COc1ccc(C)cc1NC(=O)NC[C@H]1CC[C@@H](Nc2cc(N(C)C)c3ccccc3n2)CC1 [compound 2400] | 3 (Class 3 The value of percent of control at 10^−7 M was more than 60% or the value of IC50 was more than 200 nM.)
Cc1cccc([N+](=O)[O-])c1NC(=O)NC[C@H]1CC[C@@H](Nc2cc(N(C)C)c3ccccc3n2)CC1 [compound 2401] | 3 (Class 3 The value of percent of control at 10^−7 M was more than 60% or the value of IC50 was more than 200 nM.)
CN(C)c1cc(N[C@H]2CC[C@@H](CNC(=O)Nc3ccc(F)c(F)c3)CC2)nc2ccccc12 [compound 2402] | 3 (Class 3 The value of percent of control at 10^−7 M was more than 60% or the value of IC50 was more than 200 nM.)
CN(C)c1cc(N[C@H]2CC[C@@H](CNC(=O)Nc3cc(F)cc(F)c3)CC2)nc2ccccc12 [compound 2403] | 3 (Class 3 The value of percent of control at 10^−7 M was more than 60% or the value of IC50 was more than 200 nM.)
CN(C)c1cc(N[C@H]2CC[C@@H](CNC(=O)Nc3ccc(F)c(Cl)c3)CC2)nc2ccccc12 [compound 2404] | 3 (Class 3 The value of percent of control at 10^−7 M was more than 60% or the value of IC50 was more than 200 nM.)
CN(C)c1ccnc(N[C@H]2CC[C@@H](CNC(=O)Nc3ccccc3Cl)CC2)n1 [compound 2405] | 3 (Class 3 The value of percent of control at 10^−7 M was more than 60% or the value of IC50 was more than 200 nM.)
Cc1cccc(C)c1NC(=O)NC[C@H]1CC[C@@H](Nc2nccc(N(C)C)n2)CC1 [compound 2406, N-[(cis-4-{[4-(dimethylamino)pyrimidin-2-yl]amino}cyclohexyl)methyl]-N′-(2,6-dimethylphenyl)urea] | 1 (Class 1: The value of percent of control at 10^−7 M was less than 40% or the value of IC50 was less than 50 nM.)
CN(C)c1ccnc(N[C@H]2CC[C@@H](CNC(=O)Nc3ccc(F)cc3F)CC2)n1 [compound 2407, N-(2,4-difluorophenyl)-N′-[(cis-4-{[4-(dimethylamino)pyrimidin-2-yl]amino}cyclohexyl)methyl]urea] | 2 (Class 2: The value of percent of control at 10^−7 M was from 40% to 60% or the value of IC′50 was from 50 nM to 200 nM.)
CCc1cccc(C)c1NC(=O)NC[C@H]1CC[C@@H](Nc2nccc(N(C)C)n2)CC1 [compound 2408, N-[(cis-4-{[4-(dimethylamino)pyrimidin-2-yl]amino}cyclohexyl)methyl]-N′-(2-ethyl-6-methylphenyl)urea] | 1 (Class 1: The value of percent of control at 10^−7 M was less than 40% or the value of IC50 was less than 50 nM.)
CN(C)c1ccnc(N[C@H]2CC[C@@H](CNC(=O)Nc3ccc(F)cc3)CC2)n1 [compound 2410, N-[(cis-4-{[4-(dimethylamino)pyrimidin-2-yl]amino}cyclohexyl)methyl]-N′-(4-fluorophenyl)urea] | 2 (Class 2: The value of percent of control at 10^−7 M was from 40% to 60% or the value of IC′50 was from 50 nM to 200 nM.)
CSc1ccc(NC(=O)NC[C@H]2CC[C@@H](Nc3nccc(N(C)C)n3)CC2)cc1 [compound 2411] | 3 (Class 3 The value of percent of control at 10^−7 M was more than 60% or the value of IC50 was more than 200 nM.)
CN(C)c1ccnc(N[C@H]2CC[C@@H](CNC(=O)Nc3ccccc3C(F)(F)F)CC2)n1 [compound 2412] | 3 (Class 3 The value of percent of control at 10^−7 M was more than 60% or the value of IC50 was more than 200 nM.)
Cc1cc(C)c(NC(=O)NC[C@H]2CC[C@@H](Nc3nccc(N(C)C)n3)CC2)c(C)c1 [compound 2413, N-[(cis-4-{[4-(dimethylamino)pyrimidin-2-yl]amino}cyclohexyl)methyl]-N′-mesitylurea] | 1 (Class 1: The value of percent of control at 10^−7 M was less than 40% or the value of IC50 was less than 50 nM.)
Cc1ccccc1NC(=O)NC[C@H]1CC[C@@H](Nc2nccc(N(C)C)n2)CC1 [compound 2414] | 3 (Class 3 The value of percent of control at 10^−7 M was more than 60% or the value of IC50 was more than 200 nM.)
